Reference: US8008354B2, “Death receptor sensitizing compounds and methods of use therefor” (Burnham Institute for Medical Research, priority 2006, dated 2011)

Assays:
PPC-1 cells [1] = experiment: Nuclear fragmentation of suspension PPC-1 cells overexpressing FLIP, CrmA or BclXL; assay type: cell-based, human; conditions: 5809354 60 μM or staurosporine 0.5 μM, thirty hours
Method: FIG. 15. 5809354 sensitizes cells to anoikis through a caspase 8 dependent mechanism. (A) PPC-1 cells (5×10^4) were cultured under suspension conditions overnight and then treated with 5809354 in the presence or absence of the pan-caspase inhibitor z-VAD-fink (100 μM). Thirty hours after incubation, anoikis was determined by flow cytometry to detect cell surface annexin V expression and PI uptake. Data represents the mean±SEM percent of viable cells or colonies compared to untreated controls. (B) PPC-1 cells (5×10^4) were cultured in suspension conditions overnight and then treated with 5809354 (60 μM). At increasing times after treatment, caspase activation was detected with FITC-labeled peptides that bind preferentially and irreversibly to caspase 3/7, 8, or 9. Caspase activation was monitored by flow cytometry to quantify the percentage of fluorescently labeled cells. […] At increasing times after incubation, total cellular protein was isolated and analyzed by SDS-PAGE immunoblotting using anti-caspase 8 and anti-actin antibodies. * indicates cleaved caspase 8. […] Thirty hours after incubation, apoptosis was measured by cell surface annexin V expression and PI uptake. […] Ten hours after incubation, cell viability was measured using the MTS assay. […] EGFP expression and nuclear morphology were analyzed by fluorescence microscopy. […]

PPC-1 cells [2] = experiment: Anoikis of PPC-1 cells in suspension versus adherent conditions (annexin V/PI, DAPI, colony formation); assay type: cell-based, human
Method: FIG. 12. Depletion of endogenous FLIP levels by siRNA sensitizes malignant cells to anoikis. (A) PPC-1 cells were seeded in adherent conditions overnight and then transfected with 25 nM anti-FLIP siRNA (siFLIP) or control luciferase siRNA (siCtrl). Thirty hours after transfection, cells were harvested, total protein isolated and analyzed by SDS-PAGE immunoblotting using anti-FLIP and anti-actin antibodies. (B) PPC-1 cells were transfected with increasing concentrations of siFLIP or siCtrl. After transfection, cells were treated with CH-11 Fas activating antibody (100 ng/ml). Thirty hours after incubation, cells were harvested and apoptosis measured by flow cytometry to detect cell surface annexin V expression and PI uptake. Data represents the mean±SEM percent of viable cells. (C) PPC-1 cells were transfected with increasing concentrations of siFLIP or siCtrl. After transfection, cells were subcultured under suspension conditions for 30 hours and then harvested. Apoptosis was measured by flow cytometry to detect cell surface annexin V expression and PI uptake. Data represents the mean±SEM of percent of viable cells. (D) Equal volumes of PPC-1 cells from panel C were replated under adherent conditions to permit clonogenic growth. One week after replating, cells were stained with methylene blue and the number of colonies counted. Data represents the mean±SEM percent of colonies compared to untreated controls.
FIG. 13. Small molecule down-regulation of FLIP sensitizes prostate cancer cells to anoikis. (A) PPC-1 cells were seeded overnight in adherent conditions and then treated with increasing concentrations of 5809354 for 16 hours. After incubation, cells were harvested. Total cellular RNA was extracted and mRNA levels of the long isoform of FLIP (FLIPL), the short isoform of FLIP (FLIPS), or rRNA levels of 18S were detected by real-time RT-PCR. Data were normalized using the ΔΔCT method and expressed as the mean±SEM percent of […] expression relative to untreated controls. (B) PPC-1 cells were cultured and treated as in panel A. Total cellular protein was isolated and analyzed by SDS-PAGE immunoblotting using anti-FLIP and anti-Actin antibodies. (C) PPC-1 cells were seeded overnight in adherent conditions and then exposed to increasing concentrations of 5809354 in the presence or absence of Fas-activating antibody (CH-11, 100 ng/mL). Thirty hours after incubation, cell viability was determined using the MTS assay. Data represents the mean±SEM of percent of viable cells. (D) PPC-1 cells were seeded overnight in adherent or suspension conditions and then treated with increasing concentrations of 5809354 for 30 hours. After incubation, apoptosis was measured by flow cytometry to detect cell surface annexin V expression and PI. Data represents the mean±SEM of percent of viable cells. (E) Cells were harvested, fixed, stained with DAPI, and nuclear morphology analyzed by fluorescence microscopy. Arrowheads refer to fragmented nuclei indicative of apoptosis. […] Thirty hours after incubation, cells were harvested and equal volumes plated in a colony formation assay. One week later, cells were stained with methylene blue and the number of colonies counted. Data represents the mean ±SEM percent of colonies relative to untreated controls.
FIG. 15. 5809354 sensitizes cells to anoikis through a caspase 8 dependent mechanism. (A) PPC-1 cells (5×10^4) were cultured under suspension conditions overnight and then treated with 5809354 in the presence or absence of the pan-caspase inhibitor z-VAD-fink (100 μM). Thirty hours after incubation, anoikis was determined by flow cytometry to detect cell surface annexin V expression and PI uptake. Data represents the mean±SEM percent of viable cells or colonies compared to untreated controls. (B) PPC-1 cells (5×10^4) were cultured in suspension conditions overnight and then treated with 5809354 (60 μM). […]

Which “effect of overexpressed FLIP, CrmA or BclXL on anoikis” value (PPC-1 cells [1]) does the source give for “4-(4-chloro-2-methylphenoxy)-N-hydroxybutanamide [compound 5809354]” here?
The value was “attenuated 5809354-mediated anoikis”.

What about the sensitization to anoikis (PPC-1 cells [2]; suspension conditions, 30 hours) of the same molecule?
Its sensitization to anoikis is “sensitized cells to anoikis”.

What about the “effect of z-VAD-fmk on anoikis” value (PPC-1 cells [2]; suspension conditions, z-VAD-fmk 100 μM) of the same molecule?
Its value is “z-VAD-fmk inhibited the ability of 5809354 to promote anoikis”.

What about the “apoptosis under adherent conditions” value (PPC-1 cells [2]; up to five days after treatment) of the same molecule?
Its value is “did not induce apoptosis”.

How did the “effect of overexpressed FLIP, CrmA or BclXL on anoikis” value (PPC-1 cells [1]) turn out when CN[C@@H]1C[C@H]2O[C@@](C)([C@@H]1OC)n1c3ccccc3c3c4c(c5c6ccccc6n2c5c31)C(=O)NC4 [staurosporine, reference compound] was run?
The value was “overexpression of BclXL, but not CrmA, protected”.

What about the “apoptosis in suspension versus adherent cells” value (PPC-1 cells [2]; thirty hours) of the same molecule?
The value was “did not discriminate between suspension and adherent cells”.
